Values quoted from earlier work in patent publication US20080145318A1, “ATOMOXETINE FORMULATIONS AND ASSOCIATED METHODS” (priority 2006, published 2008).

Columns and labels:
[1] = test system: other receptor systems; settings: in words
[2] = target: norepinephrine reuptake transporter (Homo sapiens, UniProt P23975); settings: relative to atomoxetine, in words
[3] = target: serotonin reuptake (Homo sapiens, UniProt P31645); settings: in words
Sequence of serotonin reuptake (P31645 whole entry): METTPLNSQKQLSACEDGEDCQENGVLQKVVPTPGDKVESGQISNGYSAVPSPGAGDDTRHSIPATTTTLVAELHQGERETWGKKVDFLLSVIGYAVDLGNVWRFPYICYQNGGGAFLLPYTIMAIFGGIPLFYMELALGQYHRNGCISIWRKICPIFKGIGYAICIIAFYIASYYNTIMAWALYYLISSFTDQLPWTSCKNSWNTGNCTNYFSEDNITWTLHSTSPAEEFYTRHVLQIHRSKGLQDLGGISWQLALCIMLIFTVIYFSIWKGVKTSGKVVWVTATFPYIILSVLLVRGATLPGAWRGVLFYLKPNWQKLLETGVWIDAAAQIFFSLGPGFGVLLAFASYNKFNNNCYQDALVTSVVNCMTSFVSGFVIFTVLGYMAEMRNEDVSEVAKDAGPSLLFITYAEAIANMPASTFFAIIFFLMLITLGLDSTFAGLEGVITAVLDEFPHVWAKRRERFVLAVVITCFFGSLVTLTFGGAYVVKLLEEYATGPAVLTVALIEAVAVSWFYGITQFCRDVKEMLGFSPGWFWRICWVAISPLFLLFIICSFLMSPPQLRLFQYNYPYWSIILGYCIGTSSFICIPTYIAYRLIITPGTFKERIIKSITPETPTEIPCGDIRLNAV

Sequence of norepinephrine reuptake transporter (P23975 whole entry): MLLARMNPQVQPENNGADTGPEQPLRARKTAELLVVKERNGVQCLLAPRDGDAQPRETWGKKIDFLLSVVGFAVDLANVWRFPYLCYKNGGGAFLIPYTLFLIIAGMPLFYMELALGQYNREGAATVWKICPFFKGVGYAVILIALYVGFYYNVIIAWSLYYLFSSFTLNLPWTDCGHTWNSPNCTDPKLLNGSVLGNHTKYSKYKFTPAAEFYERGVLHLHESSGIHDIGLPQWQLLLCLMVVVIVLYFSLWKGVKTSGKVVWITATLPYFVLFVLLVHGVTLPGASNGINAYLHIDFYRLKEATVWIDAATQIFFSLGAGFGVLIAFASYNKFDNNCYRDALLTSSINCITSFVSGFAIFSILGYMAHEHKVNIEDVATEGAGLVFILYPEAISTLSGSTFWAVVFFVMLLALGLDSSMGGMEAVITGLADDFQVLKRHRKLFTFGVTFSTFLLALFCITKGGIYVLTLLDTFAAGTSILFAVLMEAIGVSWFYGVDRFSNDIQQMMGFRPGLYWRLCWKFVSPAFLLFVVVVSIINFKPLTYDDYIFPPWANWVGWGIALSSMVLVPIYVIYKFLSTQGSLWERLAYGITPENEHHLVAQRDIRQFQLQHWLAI

## CNCCC(Oc1ccccc1C)c1ccccc1 (single isomer, unassigned; (-)) [atomoxetine, (−)-N-methyl-3-phenyl-3-(o-tolyloxy)-propylamine]
Individuals having normal activity in the CYP2D6 pathway
  plasma half-life: about 5 hours
Individuals having reduced activity in the CYP2D6 pathway (poor metabolizers)
  half-life: about 24 hours

## Cc1cc(O)ccc1OC(CCN)c1ccccc1 (centres unmarked) [4H-NDA, N-desmethyl-4-hydroxyatomoxetine]
[1]
  affinity to other receptor systems: little affinity
[2]
  inhibitory activity to the norepinephrine reuptake transporter compared to atomoxetine: less active

## CNCCC(Oc1ccc(O)cc1C)c1ccccc1 (centres unmarked) [4HA, 4-hydroxyatomoxetine]
[1]
  affinity to other receptor systems: little affinity
[3]
  serotonin reuptake inhibitor activity: pharmacologically active

## Cc1ccccc1OC(CCN)c1ccccc1 (centres unmarked) [NDA, N-desmethylatomoxetine]
[1]
  affinity to other receptor systems: little affinity
[2]
  inhibitory activity to the norepinephrine reuptake transporter compared to atomoxetine: less active
